Source: US20190315823A1, “SMALL CATIONIC ANTI-BIOFILM AND IDR PEPTIDES” (priority 2013, published 2019)
Ends that are not written are not given here.

Tested on: methicillin resistant Staphylococcus aureus (MRSA) biofilm
Test: not given
Conditions: approximate peptide concentration […] (around 3 μg/ml); compared to untreated samples
Experimental: Methods of assessment of anti-biofilm activity—Biofilm formation was initially analyzed using a static abiotic solid surface assay as described elsewhere (de la Fuente-Nunez et al., 2012). Dilutions (1/100) of overnight cultures were incubated in BM2 biofilm-adjusted medium [62 mM potassium phosphate buffer (pH 7), 7 mM (NH4)2SO4, 2 mM MgSO4, 10 μM FeSO4, 0.4% (wt/vol) glucose, 0.5% (wt/vol) Casamino Acids], or a nutrient medium such as Luria Broth, in polypropylene microtiter plates (Falcon, United States) in the absence (control) or presence of peptide. Peptide was added at time zero (prior to adding the diluted, overnight cultures) in varying concentrations, and the decrease in biofilm formation was recorded at 22-46 h for most bacteria. Planktonic cells were removed, biofilm cells adhering to the side of the tubes were stained with crystal violet, and absorbance at 595 nm was measured using a microtiter plate reader (Bio-Tek Instruments Inc., United States). Some peptides were screened against two Gram negative organisms, P. aeruginosa and K. pneumoniae using a Bioflux apparatus (AutoMate Scientific, Berkeley, Calif.; http://www.autom8.com/bioflux_biofilm.html), which allows for the high-throughput, real-time analysis of biofilms.

First: 1018-G5: single substituted 1018 peptide (VRLIGAVRIWRR-NH2) [Peptide 1018-G5]
Second: 1002-I3: single substituted 1002 peptide (VQIWLIVWRIRK-NH2) [Peptide 1002-I3]
The “% Biofilm inhibition” value of the first is lower: 38% for the first, 62% for the second.

Compared with “HH2-K8: single substituted HH2 peptide (VQLRIRVKVIRA-NH2)”, “1018-L11: single substituted 1018 peptide (VRLIVAVRIWLR-NH2) [Peptide 1018-L11]” is lower in “% Biofilm inhibition” value: 73% for the first, 4% for the second.

First: 1018-L8: single substituted 1018 peptide (VRLIVAVLIWRR-NH2) [Peptide 1018-L8]
Second: 1018-G4: single substituted 1018 peptide (VRLGVAVRIWRR-NH2) [Peptide 1018-G4]
The “% Biofilm inhibition” value of the first is lower: 40% for the first, 63% for the second.

Going from “1018-I12: single substituted 1018 peptide (VRLIVAVRIWRI-NH2) [Peptide 1018-I12]” to “1002-G5: single substituted 1002 peptide (VQRWGIVWRIRK-NH2) [Peptide 1002-G5]”, the “% Biofilm inhibition” value rises from 57% to 59%.

Compared with “HH2-K7: single substituted HH2 peptide (VQLRIRKAVIRA-NH2)”, “1002-I12: single substituted 1002 peptide (VQRWLIVWRIRI-NH2) [Peptide 1002-I12]” is higher in “% Biofilm inhibition” value: 7% for the first, 66% for the second.

Compared with “HH2-R12: single substituted HH2 peptide (VQLRIRVAVIRR-NH2)”, “HH2-W8: single substituted HH2 peptide (VQLRIRVWVIRA-NH2)” is lower in “% Biofilm inhibition” value: 80% for the first, 75% for the second.

“HH2-W7: single substituted HH2 peptide (VQLRIRWAVIRA-NH2)” was tested, and the “% Biofilm inhibition” value was 70%.

Tested on: human peripheral blood mononuclear cells (MCP-1)
Test: SPOT-synthesized derivative screen: production of chemokine MCP-1
Assay type: cell-based
Conditions: Table 12; No LPS; human PBMC, peptide at ~18-24 μM
Experimental: Venous blood (20 ml) from healthy volunteers was collected in Vacutainer® collection tubes containing sodium heparin as an anticoagulant (Becton Dickinson, Mississauga, ON) in accordance with UBC ethical approval and guidelines. Blood was diluted 1:1 with complete RPMI 1640 medium and separated by centrifugation over a Ficoll-Paque® Plus (Amersham Biosciences, Piscataway, N.J., USA) density gradient. White blood cells were isolated from the buffy coat, washed twice in RPMI 1640 complete medium, and the number of peripheral blood mononuclear cells (PBMC) was determined by Trypan blue exclusion. PBMC (5×10^5) were seeded into 12-well tissue culture dishes (Falcon; Becton Dickinson) at 0.75 to 1×10^6 cells/ml at 37° C. in 5% CO2. The above conditions were chosen to mimic conditions for circulating blood monocytes entering tissues at the site of infection via extravasation.
Following incubation of the cells under various treatment regimens, the tissue culture supernatants were centrifuged at 1000×g for 5 min, then at 10,000×g for 2 min to obtain cell-free samples. Supernatants were aliquoted and then stored at −20° C. prior to assay for various chemokines by capture ELISA (eBioscience and BioSource International Inc., CA, USA respectively)

First: 1018-G5: single substituted 1018 peptide (VRLIGAVRIWRR-NH2) [Peptide 1018-G5]
Second: 1002-I3: single substituted 1002 peptide (VQIWLIVWRIRK-NH2) [Peptide 1002-I3]
The “Fold increase in MCP1 cf. untreated cells” value (from here on “Fold increase”) of the first is lower: 13 for the first, 13.2 for the second.

Going from “HH2-K8: single substituted HH2 peptide (VQLRIRVKVIRA-NH2)” to “1018-L11: single substituted 1018 peptide (VRLIVAVRIWLR-NH2) [Peptide 1018-L11]”, the “Fold increase” value falls from 9.8 to 1.7.

Going from “1018-L8: single substituted 1018 peptide (VRLIVAVLIWRR-NH2) [Peptide 1018-L8]” to “1018-G4: single substituted 1018 peptide (VRLGVAVRIWRR-NH2) [Peptide 1018-G4]”, the “Fold increase” value rises from 0.5 to 1.2.

Compared with “1018-I12: single substituted 1018 peptide (VRLIVAVRIWRI-NH2) [Peptide 1018-I12]”, “1002-G5: single substituted 1002 peptide (VQRWGIVWRIRK-NH2) [Peptide 1002-G5]” is lower in “Fold increase” value: 19 for the first, 0.9 for the second.

First: HH2-K7: single substituted HH2 peptide (VQLRIRKAVIRA-NH2)
Second: 1002-I12: single substituted 1002 peptide (VQRWLIVWRIRI-NH2) [Peptide 1002-I12]
The “Fold increase” value of the first is higher: 1.7 for the first, 0.9 for the second.

Compared with “HH2-R12: single substituted HH2 peptide (VQLRIRVAVIRR-NH2)”, “HH2-W8: single substituted HH2 peptide (VQLRIRVWVIRA-NH2)” is higher in “Fold increase” value: 51 for the first, 81 for the second.

With “HH2-W7: single substituted HH2 peptide (VQLRIRWAVIRA-NH2)” the “Fold increase” value was 9.2.

Same assay, conditions: Table 12; No LPS; human PBMC, peptide at ~18-24 μM; background subtracted 139 (HH2 derivatives), 170 (1018 derivatives), 242 (1002 and hybrid peptides) pg/ml

“1018-G5: single substituted 1018 peptide (VRLIGAVRIWRR-NH2) [Peptide 1018-G5]” and “1002-I3: single substituted 1002 peptide (VQIWLIVWRIRK-NH2) [Peptide 1002-I3]” are within 1.5-fold of each other in “MCP1” value: 2090 pg/mL for the first, 2953.7 pg/mL for the second.

Compared with “HH2-K8: single substituted HH2 peptide (VQLRIRVKVIRA-NH2)”, “1018-L11: single substituted 1018 peptide (VRLIVAVRIWLR-NH2) [Peptide 1018-L11]” is 13-fold lower in “MCP1” value: 1501 pg/mL for the first, 118 pg/mL for the second.

First: 1018-L8: single substituted 1018 peptide (VRLIVAVLIWRR-NH2) [Peptide 1018-L8]
Second: 1018-G4: single substituted 1018 peptide (VRLGVAVRIWRR-NH2) [Peptide 1018-G4]
The “MCP1” value of the first is lower: -83 pg/mL for the first, 32 pg/mL for the second.

First: 1018-I12: single substituted 1018 peptide (VRLIVAVRIWRI-NH2) [Peptide 1018-I12]
Second: 1002-G5: single substituted 1002 peptide (VQRWGIVWRIRK-NH2) [Peptide 1002-G5]
The “MCP1” value of the first is higher: 3003 pg/mL for the first, -36.2 pg/mL for the second.

Going from “HH2-K7: single substituted HH2 peptide (VQLRIRKAVIRA-NH2)” to “1002-I12: single substituted 1002 peptide (VQRWLIVWRIRI-NH2) [Peptide 1002-I12]”, the “MCP1” value falls from 117 pg/mL to -36.2 pg/mL.

Going from “HH2-R12: single substituted HH2 peptide (VQLRIRVAVIRR-NH2)” to “HH2-W8: single substituted HH2 peptide (VQLRIRVWVIRA-NH2)”, the “MCP1” value rises from 8574 pg/mL to 13556 pg/mL (1.6-fold).

“HH2-W7: single substituted HH2 peptide (VQLRIRWAVIRA-NH2)” was tested, and the “MCP1” value was 1395 pg/mL.

Tested on: LPS-stimulated human peripheral blood mononuclear cells (IL1-β)
Test: not given
Assay type: cell-based
Conditions: Table 12; cells stimulated with 10 ng/ml LPS
Experimental: LPS from P. aeruginosa strain H103 was highly purified free of proteins and lipids using the Darveau-Hancock method. Briefly, P. aeruginosa was grown overnight in LB broth at 37° C. Cells were collected and washed and the isolated LPS pellets were extracted with a 2:1 chloroform:methanol solution to remove contaminating lipids. Purified LPS samples were quantitated using an assay for the specific sugar 2-keto-3-deoxyoctosonic acid (KDO assay) and then resuspended in endotoxin-free water (Sigma-Aldrich).

First: 1018-G5: single substituted 1018 peptide (VRLIGAVRIWRR-NH2) [Peptide 1018-G5]
Second: 1002-I3: single substituted 1002 peptide (VQIWLIVWRIRK-NH2) [Peptide 1002-I3]
The “Fold change in IL1β relative to no peptide LPS stimulated cells” value of the first is higher: 1.23 for the first, 0.05 for the second.

Going from “HH2-K8: single substituted HH2 peptide (VQLRIRVKVIRA-NH2)” to “1018-L11: single substituted 1018 peptide (VRLIVAVRIWLR-NH2) [Peptide 1018-L11]”, the “Fold change in IL1β relative to no peptide LPS stimulated cells” value rises from 0.65 to 1.12.

First: 1018-L8: single substituted 1018 peptide (VRLIVAVLIWRR-NH2) [Peptide 1018-L8]
Second: 1018-G4: single substituted 1018 peptide (VRLGVAVRIWRR-NH2) [Peptide 1018-G4]
The “Fold change in IL1β relative to no peptide LPS stimulated cells” value of the first is higher: 0.42 for the first, 0.39 for the second.

Compared with “1018-I12: single substituted 1018 peptide (VRLIVAVRIWRI-NH2) [Peptide 1018-I12]”, “1002-G5: single substituted 1002 peptide (VQRWGIVWRIRK-NH2) [Peptide 1002-G5]” is higher in “Fold change in IL1β relative to no peptide LPS stimulated cells” value: 0.24 for the first, 0.25 for the second.

Compared with “HH2-K7: single substituted HH2 peptide (VQLRIRKAVIRA-NH2)”, “1002-I12: single substituted 1002 peptide (VQRWLIVWRIRI-NH2) [Peptide 1002-I12]” is lower in “Fold change in IL1β relative to no peptide LPS stimulated cells” value: 1.36 for the first, 0.05 for the second.

Going from “HH2-R12: single substituted HH2 peptide (VQLRIRVAVIRR-NH2)” to “HH2-W8: single substituted HH2 peptide (VQLRIRVWVIRA-NH2)”, the “Fold change in IL1β relative to no peptide LPS stimulated cells” value falls from 1.23 to 0.42.

With “HH2-W7: single substituted HH2 peptide (VQLRIRWAVIRA-NH2)” the “Fold change in IL1β relative to no peptide LPS stimulated cells” value was 0.88.

Same assay, conditions: Table 12; cells stimulated with 10 ng/ml LPS; LPS alone 1313 (HH2 derivatives), 1927 (1018 derivatives), 2455 (1002 and hybrid peptides) pg/ml

Going from “1018-G5: single substituted 1018 peptide (VRLIGAVRIWRR-NH2) [Peptide 1018-G5]” to “1002-I3: single substituted 1002 peptide (VQIWLIVWRIRK-NH2) [Peptide 1002-I3]”, the “IL1β Production” value falls from 1620 pg/mL to 127 pg/mL (13-fold).

First: HH2-K8: single substituted HH2 peptide (VQLRIRVKVIRA-NH2)
Second: 1018-L11: single substituted 1018 peptide (VRLIVAVRIWLR-NH2) [Peptide 1018-L11]
The “IL1β Production” value of the first is 1.7-fold lower: 851 pg/mL for the first, 1467 pg/mL for the second.

“1018-L8: single substituted 1018 peptide (VRLIVAVLIWRR-NH2) [Peptide 1018-L8]” and “1018-G4: single substituted 1018 peptide (VRLGVAVRIWRR-NH2) [Peptide 1018-G4]” are within 1.5-fold of each other in “IL1β Production” value: 553 pg/mL for the first, 511 pg/mL for the second.

First: 1018-I12: single substituted 1018 peptide (VRLIVAVRIWRI-NH2) [Peptide 1018-I12]
Second: 1002-G5: single substituted 1002 peptide (VQRWGIVWRIRK-NH2) [Peptide 1002-G5]
The “IL1β Production” value of the first is 2-fold lower: 314 pg/mL for the first, 621 pg/mL for the second.

Compared with “HH2-K7: single substituted HH2 peptide (VQLRIRKAVIRA-NH2)”, “1002-I12: single substituted 1002 peptide (VQRWLIVWRIRI-NH2) [Peptide 1002-I12]” is 14-fold lower in “IL1β Production” value: 1782 pg/mL for the first, 127 pg/mL for the second.

Compared with “HH2-R12: single substituted HH2 peptide (VQLRIRVAVIRR-NH2)”, “HH2-W8: single substituted HH2 peptide (VQLRIRVWVIRA-NH2)” is 2.9-fold lower in “IL1β Production” value: 1618 pg/mL for the first, 553 pg/mL for the second.

With “HH2-W7: single substituted HH2 peptide (VQLRIRWAVIRA-NH2)” the “IL1β Production” value was 1154 pg/mL.
